Consider four molecules from article PMC7144376, “Antiviral Effects of Novel 2-Benzoxyl-Phenylpyridine Derivatives” (Molecules, 2020).

Data set [1] can be described thus: Cytotoxicity on uninfected HeLa cells (MTT, 48 h). The class given is cell-based. The note with it: human, read-out: CC50 (reduce cell viability by 50%), ADV7 host cells. As to the method:
(§1) Human laryngeal carcinoma cells (Hep-2) and human cervical carcinoma cells (HeLa) were maintained in DMEM (Gibco) supplemented with 10% fetal bovine serum (FBS; Gibco), 100 U/mL penicillin and streptomycin, and 2 mM L-glutamine.
(§2) The antiviral activities of compounds against CVB3 and ADV7 were determined by measuring their inhibition of virus-induced CPEs in acutely infected Hep-2 and HeLa cells, respectively. Confluent cell monolayers in 96-well plates were infected with 100 TCID50 of CVB3 or ADV7 for 1.5 h at 37 °C, inocula were aspirated, and the cells then were incubated with various concentrations of compounds at 37 °C, 5% CO2, for 48 h. CPEs were observed by microscopy and the viability of cells was determined using MTT assays. The concentrations of test compounds required to achieve 50% protection from virus-induced cytopathogenicity (EC50 values) were determined. Adverse effects of tested compounds on host cells were also assessed using the MTT method after exposing uninfected cells to various concentrations of test compounds for 48 h at 37 °C. The CC50 values of compounds were calculated using SPSS software and selectivity indices were the ratio of CC50:EC50. Each experiment was performed in triplicate and at least three times, independently.

In data set [2] the test system is CVB3. Description: Direct inactivation of virions (viricidal test). The format is cell-based, Coxsackievirus B3. The settings on record: 10^4 TCID50 CVB3, 2 h at 37 °C; 120 μM W-9, 160 μM W-13, W-15, ribavirin. As to the method:
To determine whether these 2-benzoxyl-phenylpyridine derivatives inactivated virions directly, 10^4 TCID50 of CVB3 suspension was incubated with 120 μM W-9, 160 μM W-13, 160 μM W-15, or 160 μM ribavirin for 2 h at 37 °C. Subsequently, viral titers were measured by inoculating 100-fold dilutions of the mixtures, beyond the effective concentrations of the compounds, into the host cells. TCID50 values were calculated by the Reed–Muench method on day 2 post-inoculation.

Data set [3] is described as follows: Cytotoxicity on uninfected Hep-2 cells (MTT, 48 h). The class given is cell-based. The note with it: human, read-out: CC50 (reduce cell viability by 50%), CVB3 host cells. As to the method: as §1, §2
For a further data set, the system named is ADV7. Description: ADV7 progeny virus yield in HeLa cells (TCID50 titration). The note with it: 36 h, 120 μM W-9, 160 μM W-13, 160 μM W-15, 160 μM ribavirin. The class given is cell-based, adenovirus type 7. As to the method:
Based on their antiviral activities and therapeutic selectivity indices, the effects on virus progeny yields of compounds W9, W13, and W15 were further investigated, using ribavirin as a positive control drug. To this end, confluent monolayers of Hep-2 or HeLa cells in 96-well plates were infected with 100 × median tissue culture infective dose (TCID50) of CVB3 or ADV7, then treated with 120 μM W-9, 160 μM W-13, 160 μM W-15, or 160 μM ribavirin. After 36 h, culture media and cell lysates were collected, following freeze-thaw cycles, and then subjected to virus titration.
Figure 2 The effects of W9, W13, and W15 on progeny virus production. Hep-2 cells infected with 100 TCID50 of CVB3 (a), or HeLa cells infected with 100 TCID50 of ADV7(b), were incubated in the absence (virus control) or presence of 120 μM W-9, 160 μM W-13, 160 μM W-15, or 160 μM ribavirin for 36 h, and the culture media and cell lysates then harvested for virus titration. Viral titers are presented as Log10 TCID50/mL. * p < 0.05; ** p < 0.01, compared with the virus control group.
CVB3 or ADV7 suspensions, serially diluted 10-fold with DMEM containing 2% FBS (DMEM maintenance medium, MM), were inoculated to Hep-2 or HeLa cells in 96-well plates. After 1.5 h incubation at 37 °C in 5% CO2, unbound virus was washed out and the MM was added to the cells. After 2 days, infected cells were monitored for CPEs and virus titers were calculated using the Reed–Muench method.

In data set [4] the test system is CVB3. Description: Analysis of effective stage (prevention, mixture, treatment modes). The format is cell-based, Coxsackievirus B3. The settings on record: Hep-2 cells, cell viability after 48 h; for inhibition of CVB3, compound added just before or during infection: prevention and mixture modes; for inhibitory effect against CVB3, compound added post infection: treatment mode. As to the method:
The mechanisms by which W9, W13, and W15 inhibit CVB3 infection were further investigated by three different approaches, using ribavirin as a positive control. Antiviral effects against CVB3 were detected by measuring cell viability after 48 h of infection when cells were treated with compounds W9, W13, and W15 before, simultaneously, or after inoculation with CVB3 (100 TCID50).
Figure 3 Analysis of the modes of action of W9, W13, and W15 against CVB3. (a) Analysis of effective stage. The antiviral effects of test compounds against CVB3 were detected by measuring cell viability after 48 h of infection when cells were treated with W9, W13, or W15 before, simultaneously, or after inoculation with CVB3 (100 TCID50). (b) Analysis of the effects on CVB3 adsorption. Mock-, 120 μM W-9-, 160 μM W-13-, 160 μM W-15-, or 160 μM ribavirin-treated CVB3 (10^6 TCID50) was inoculated onto Hep-2 cells and adsorbed for 2 h. Infected cells were then harvested and subjected to virus titration, using the TCID50 method. (c) The effects of test compounds on CVB3 release from Hep-2 cells. Hep-2 cells infected with 100 TCID50 of CVB3 were incubated with test compounds for 12 h, then cells and culture supernatants (intra- and extracellular) analyzed for virus yield, separately or together. Mock, no infection; VC, virus control. Values represent the means ± SDs of three independent experiments. * p < 0.05; ** p < 0.01, compared with the virus control group.
To identify the step in the life cycle of CVB3 that was affected by the compounds, various concentrations of W9, W13, and W15 were added to Hep-2 cells, and the following three treatment procedures conducted: (i) To evaluate preventive effects (prevention mode of action), various concentrations of compounds were added to cells for 2 h at 37 °C, followed by washing with MM before virus infection; (ii) To analyze for inhibition of adsorption (mixture mode of action), a mixture of compound and virus was added to cells for 2 h at 37 °C, followed by washing with MM; (iii) To assess therapeutic effects (treatment mode of action), cells were first infected for 2 h at 37 °C, followed by washing with MM, addition of the compounds, and incubation for the duration of the experiment. For all procedures, cell viability was estimated after 48 h of infection, using MTT assays.

As usually defined, the CC50 is the concentration giving 50% cytotoxicity. For `NC(=O)c1ncn([C@@H]2O[C@H](CO)[C@@H](O)[C@H]2O)n1` [Ribavirin, reference compound], the figures for the CC50 at 48 h in data set [1] and in data set [3] were 807 µM and 836 µM, respectively. Besides, the “virus titer after incubating CVB3 suspension with compound (viricidal activity)” value (“virus titer” for short) in the data set with CVB3 [2] is “No significant difference”. Also, the “reduction in ADV7 virus progeny titer relative to untreated control” value in the data set on ADV7 is on record as around 1.7 log.

Turning to `O=C(Oc1cc(Cl)ccc1-c1ccccn1)c1ccccc1` [W9], in data set [1], the CC50 at 48 h turned out to be 265 ± 28.1 µM. Besides, the “virus titer” value in the data set on CVB3 [2] is on record as “No significant difference”. Moreover, in the data set with CVB3 [4], the “inhibition of CVB3, compound added just before or during infection” value (shortened to “inhibition of CVB3”) is “no significant inhibition” and the “inhibitory effect against CVB3, compound added post infection” value (“inhibitory effect against CVB3” below) is on record as “most powerful inhibitory effects”. Moreover, in data set [3], the CC50 at 48 h was 148 ± 11.6 µM. For the same molecule, the “reduction in ADV7 virus progeny titer relative to untreated control” value in the data set with ADV7 is “approximately 2.0 log”.

In the case of `Cc1ccc(OC(=O)C(C)(C)C)c(-c2ccccn2)c1` [W13], the CC50 at 48 h in data set [1] was above 372 µM. For the same molecule, the “virus titer” value with CVB3 [2] is given as “No significant difference”. For the same molecule, in the data set with CVB3 [4], the “inhibition of CVB3” value is given as “no significant inhibition” and the “inhibitory effect against CVB3” value is given as “most powerful inhibitory effects”. Moreover, the CC50 at 48 h in data set [3] turned out to be 424 ± 26.8 µM. Also, the “reduction in ADV7 virus progeny titer relative to untreated control” value in the data set with ADV7 is on record as “approximately 2.0 log”.

As to `CC(=O)Oc1ccc(-c2ccccn2)c(OC(=O)c2ccccc2)c1` [W15], the CC50 at 48 h in data set [1] turned out to be 795 ± 33.8 µM. The “virus titer” value in the data set with CVB3 [2] is “No significant difference”. Further, in the data set on CVB3 [4], the “inhibition of CVB3” value is reported as “no significant inhibition” and the “inhibitory effect against CVB3” value was “most powerful inhibitory effects”. Further, in data set [3], the CC50 at 48 h is 451 ± 32.4 µM. Also, the “reduction in ADV7 virus progeny titer relative to untreated control” value in the data set on ADV7 was “approximately 2.0 log”.
